The source of these data is patent publication US11851409B2, “Deuterated benzylaminopyrimidinedione derivatives and use thereof” (QINGDAO JI'AO PHARMACEUTICAL TECHNOLOGY CO., LTD, priority 2019, dated 2023).

A short description of this series: Pharmacokinetic test in SD rats. The series is classed as in vivo. The conditions noted are these: male, plasma, rat, iv, 1 mg/kg; for Vd: read-out: Vss. The protocol: Experimental animals: 4 healthy adult male SD rats (purchased from Hunan SJA Laboratory Animal Co., Ltd) were divided into two groups, […].
Drug preparation: a certain amount of the compound of the present disclosure or MYK461 is weighted, and 10% DMSO, 10% Kolliphor HS15 and 80% saline are added to prepare the compound solution with target concentration.
Administration and sample collection: the animals fasted for 12 h before administration, ate in 3 h after administration, and were administered by intravenous administration (IV, 1 mg/kg) through the posterior limb vein of SD rats and orally intragastric administration (PO, 5 mg/kg), respectively. Then, blood samples were collected from the tail vein of rats at time points of 0, 0.083, 0.25, 0.5, 1, 2, 4, 6, 8, and 24 h, respectively, and the blood volume was about 200-400 μL/time point. After collecting whole blood at each time point, the blood samples were placed in K2EDTA anticoagulant test tubes, which were placed in an incubator with ice packs for preservation. All the samples were centrifuged at 4600 r/min at 4° C. for 5 min within 15 min to obtain plasma. The concentrations of different compounds in rat plasma after administration were determined by LC/MS/MS method. Pharmacokinetic parameters were calculated according to the drug concentration-time curve.

Compound `[2H]c1c([2H])c([2H])c([C@H](C)Nc2cc(=O)n(C(C)C)c(=O)[nH]2)c([2H])c1[2H]` [Example 1, (S)-3-isopropyl-6-((1-(phenyl-d5)ethyl)amino)pyrimidine-2,4(1H,3H)-dione] registered an AUC(0-inf) of 6830 ng·h/mL, an AUC(0-t) of 3670 ng·h/mL, a Cmax of 883 ng/mL and an MRT inf of 31.1 h. For the same compound, the Tmax was found to be 4.98 min, the clearance amounted to 2.44 mL/min/kg, the half-life is 22.6 h and the Vd turned out to be 4.56 L/kg.
As to `[2H]c1ccc([C@H](C)Nc2cc(=O)n(C(C)C)c(=O)[nH]2)cc1` [Example 2, (S)-3-isopropyl-6-((1-(phenyl-4-d)ethyl)amino)pyrimidine-2,4(1H,3H)-dione], the AUC(0-inf) is 4670 ng·h/mL, the AUC(0-t) worked out at 3290 ng·h/mL, the highest level (Cmax) was 643 ng/mL and the MRT inf amounted to 18.8 h. The Tmax was 4.98 min, the clearance is 3.57 mL/min/kg, the half-life is 13.9 h and the Vd is 4.03 L/kg.
Turning to `[2H]C([2H])([2H])C(n1c(=O)cc(N[C@@H](C)c2ccccc2)[nH]c1=O)C([2H])([2H])[2H]` [Example 5, (S)-6-((1-phenylethyl)amino)-3-(propane-2-yl-1,1,1,3,3,3-d6)pyrimidine-2,4 (1H,3H)-dione], the AUC(0-inf) worked out at 5690 ng·h/mL, the AUC(0-t) came to 4450 ng·h/mL, the Cmax came to 982 ng/mL and the MRT inf amounted to 14.8 h. In addition, the Tmax worked out at 4.98 min, the clearance turned out to be 2.93 mL/min/kg, the half-life was 11.3 h and the Vd stood at 2.6 L/kg.
In turn, `CC(C)n1c(=O)cc(N[C@@H](C)c2ccccc2)[nH]c1=O` [MYK461, reference compound] showed an AUC(0-inf) of 3090 ng·h/mL, an AUC(0-t) of 2420 ng·h/mL, a Cmax of 393 ng/mL and an MRT inf of 15.1 h. The Tmax came to 4.98 min, the clearance was found to be 5.39 mL/min/kg, the half-life was 11.6 h and the Vd was 4.87 L/kg.

One may read the AUC(0-inf) as the area under the concentration-time curve extrapolated to infinity. By AUC(0-t) is commonly meant the area under the concentration-time curve up to a stated or last time point. A low value points to less exposure. The term Cmax denotes the peak of the concentration-time curve. Broadly, the MRT inf is the average time that molecules of a dose stay in the body. The Tmax is the time at which the peak concentration occurs. In general, clearance refers to a measure of how efficiently the substance is removed, as volume per time. Read a low clearance as a low capacity for elimination. What is called half-life is the time in which the quantity being followed falls by half. A higher half-life goes with slow loss.
